# Results: patent US20250129430A1, “HIGH ATP-AFFINITY PROTEIN AS THERAPEUTIC TARGET FOR INTRACTABLE CANCER MOLECULAR SUBTYPES AND INHIBITOR THEREOF” (VeraVerse Co., Ltd., priority 2021, published 2025)
# Assays:
# Test in all cases: Cell viability drug screen, 12-point dose-response AUC
# Assay type in all cases: cell-based, human
# FU97 = FU97 cells; 72 hours; 12-point dose-response
# Outline: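 Trapezoidal AUC of a 12-point, DMSO-normalized dose-response curve. Luminescent viability was measured after 72 h of exposure at 37° C to half-log serial dilutions (0.5% DMSO control), dosed 24 h after plating FU97 cells at 5×10^3 per well.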
# SNU484 = SNU484 cells; 72 hours; 12-point dose-response
# Outline: (§1)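 Viability: luminescence (Glo kit, 15 min RT), normalized to 0.5% DMSO vehicle. Dosing: half-log, 12 concentrations, 72 h. Cells: 5×10^3/well, treated 24 h after plating. Value: trapezoidal AUC, mean of repeats.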
# SNU638 = SNU638 cells; 72 hours; 12-point dose-response
# Outline: as §1
# YCC2 = YCC2 cells; 72 hours; 12-point dose-response
# Outline: as §1
# NCC24 = NCC24 cells; 72 hours; 12-point dose-response
# Outline: as §1
# SK4 = SK4 cells; 72 hours; 12-point dose-response
# Outline: as §1
# AGS = AGS cells; 72 hours; 12-point dose-response
# Outline: as §1
# SNU1967 = SNU1967 cells; 72 hours; 12-point dose-response
# Outline: as §1
# NCI_N87 = NCI_N87 cells; 72 hours; 12-point dose-response
# Outline: as §1
# SNU216 = SNU216 cells; 72 hours; 12-point dose-response
# Outline: as §1
# SNU719 = SNU719 cells; 72 hours; 12-point dose-response
# Outline: as §1
# SNU620 = SNU620 cells; 72 hours; 12-point dose-response
# Outline: as §1
# NCC19 = NCC19 cells; 72 hours; 12-point dose-response
# Outline: as §1
# MKN74 = MKN74 cells; 72 hours; 12-point dose-response
# Outline: as §1
# MKN28 = MKN28 cells; 72 hours; 12-point dose-response
# Outline: as §1
# SNU16 = SNU16 cells; 72 hours; 12-point dose-response
# Outline: as §1
# OCUM1 = OCUM1 cells; 72 hours; 12-point dose-response
# Outline: as §1
# SNU1750 = SNU1750 cells; 72 hours; 12-point dose-response
# Outline: as §1
# NCC20 = NCC20 cells; 72 hours; 12-point dose-response
# Outline: as §1
# MKN45 = MKN45 cells; 72 hours; 12-point dose-response
# Outline: as §1
# MKN1 = MKN1 cells; 72 hours; 12-point dose-response
# Outline: as §1
# SNU1 = SNU1 cells; 72 hours; 12-point dose-response
# Outline: as §1
# YCC11 = YCC11 cells; 72 hours; 12-point dose-response
# Outline: as §1
# NCC59 = NCC59 cells; 72 hours; 12-point dose-response
# Outline: as §1
# Hs746T = Hs746T cells; 72 hours; 12-point dose-response
# Outline: as §1
# SNU601 = SNU601 cells; 72 hours; 12-point dose-response
# Outline: as §1
# YCC3 = YCC3 cells; 72 hours; 12-point dose-response
# Outline: as §1
# KATO3 = KATO3 cells; 72 hours; 12-point dose-response
# Outline: as §1
# SNU668 = SNU668 cells; 72 hours; 12-point dose-response
# Outline: as §1
smiles,measurement,setting,value
CC(C)C[C@H](NC(=O)CNC(=O)c1cc(Cl)ccc1Cl)B(O)O [MLN2238],"area under the viability curve (AUC), normalized",FU97,0
same,"area under the viability curve (AUC), normalized",SNU484,−0.4125
same,"area under the viability curve (AUC), normalized",SNU638,−0.5736
same,"area under the viability curve (AUC), normalized",YCC2,0.04339
same,"area under the viability curve (AUC), normalized",NCC24,−1.21
same,"area under the viability curve (AUC), normalized",SK4,0.5584
same,"area under the viability curve (AUC), normalized",AGS,−0.8012
same,"area under the viability curve (AUC), normalized",SNU1967,−1.676
same,"area under the viability curve (AUC), normalized",NCI_N87,1.708
same,"area under the viability curve (AUC), normalized",SNU216,0.2331
same,"area under the viability curve (AUC), normalized",SNU719,0.4168
same,"area under the viability curve (AUC), normalized",SNU620,−0.9643
same,"area under the viability curve (AUC), normalized",NCC19,−0.8166
same,"area under the viability curve (AUC), normalized",MKN74,−0.2214
same,"area under the viability curve (AUC), normalized",MKN28,0.5257
same,"area under the viability curve (AUC), normalized",SNU16,0.7701
same,"area under the viability curve (AUC), normalized",OCUM1,2.118
same,"area under the viability curve (AUC), normalized",SNU1750,−1.896
same,"area under the viability curve (AUC), normalized",NCC20,−1.247
same,"area under the viability curve (AUC), normalized",MKN45,0.4006
same,"area under the viability curve (AUC), normalized",MKN1,0.3958
same,"area under the viability curve (AUC), normalized",SNU1,−0.5037
same,"area under the viability curve (AUC), normalized",YCC11,−1.695
same,"area under the viability curve (AUC), normalized",NCC59,0.318
same,"area under the viability curve (AUC), normalized",Hs746T,−1.189
same,"area under the viability curve (AUC), normalized",SNU601,−0.2758
same,"area under the viability curve (AUC), normalized",YCC3,2.808
same,"area under the viability curve (AUC), normalized",KATO3,0.7115
same,"area under the viability curve (AUC), normalized",SNU668,1.1951
